Assay results taken from patent US6498243B1, “Epimorphin antagonist and process for producing it” (Sumitomo Electric Industries, Ltd., priority 1996, dated 2002).

Columns and labels:
Type in all cases: cell-based
[1] = system: cell strain C3H/10T1/2clone8; assay: Cell adhesion to coated dishes (O.D. at 260 nm of bound cells); conditions: one hour; for cell adhesion compared with modified epimorphins: coated dishes, C3H/10T1/2clone8 cells; for O.D. at 260 nm (number of the cells bound to the dishes, indicator of cell adhesion): specimen coated on suspension culture dishes, C3H/10T1/2clone8 cells in DH medium with 20 mg/ml bovine serum albumin, control (untreated) 0.0194
From the text: The polypeptides A, B and C of the present invention obtained in Example 1, and the modified epimorphins (fragment (123) and fragment (2), each having the same cell adhesion capacity as that of natural type epimorphin) were coated on suspension culture medium dishes. After drying, the dishes were washed once with 8M urea/lysis buffer. Then, the dishes were washed 5 times with PBS^−, and the cell strain C3H/10T1/2clone8 (Dainippon Pharmaceutical Co., Ltd., 08-226) was sprinkled on the dishes using D-MEM/F-12 culture medium (GIBCO BRL, 12400-024; hereinafter called “DH medium”) containing 20 mg/ml bovine serum albumin (SIGMA, A-7030). One hour later, the dishes were washed 3 times with PBS^−, and then the cells were collected using 0.5N NaOH. The O.D. at 260 nm was measured to determine the number of the cells bound to the dishes. The cell count was used as an indicator of the cell adhesion of each specimen. The O.D.'s found were 1.5237 for polypeptide A, 1.4251 for polypeptide B, 1.4697 for polypeptide C, 1.4959 for fragment (123), 1.4478 for fragment (2), and 0.0194 for control (untreated).

[2] = system: morphogenetic action of epimorphin on a pulmonary primordium; assay: Inhibitory action on morphogenesis of bronchus, organ culture of pulmonary primordium; conditions: 0.35 mg/ml in DH medium; ICR mouse fetal pulmonary primordium (12 days of gestation); 3 days of culture; 5% CO2 at 37° C.
Experimental: (§1) A pulmonary primordium was removed from the fetus of the ICR pregnant mouse (Nippon Charles River, 12 days of gestation) under a stereoscopic microscope. The pulmonary primordium taken was placed on Nuclepore membrane filter (SN 110419) floated on a culture medium (DH medium, or 0.35 mg/ml polypeptide A-containing DH medium). Organ culture was performed in 5% CO2 at 37° C. to investigate the effect of polypeptide A on the morphogenesis of the bronchus. […] This manner of inhibition of morphogenesis was exactly the same as in treatment with MC-1, i.e., antibodies inhibiting the function of epimorphin.

[3] = system: hair follicle morphogenetic action of epimorphin on a maxillary skin; assay: Inhibitory action on morphogenesis of maxillary skin (hair follicle), organ culture; conditions: 0.35 mg/ml in DH medium; ICR mouse fetal maxillary skin (13 days of gestation); 3 days of culture; 5% CO2 at 37° C.
Experimental: as §1, with “maxillary skin” for “pulmonary primordium”, “13” for “12”, “hair follicle.” for “bronchus.”

Row | Substance | cell adhesion compared with modified epimorphins [1] | O.D. at 260 nm (number of the cells bound to the dishes, indicator of cell adhesion) [1] | morphogenesis of the bronchus [2] | morphogenesis of hair follicles [3]
1 | polypeptide C: 41 amino acids, 1st (N-terminal) to 41st of the functional domain (SEQ ID NO: 8) of natural type mouse epimorphin (NGNRTSVDLRIRRTQHSVLSRKFVDVMAEYNEAQILFRERS; listed as Mus musculus) | cell adhesion comparable to that of the modified epimorphins | 1.4697 | – | –
2 | polypeptide B: 39 amino acids, 1st (N-terminal) to 39th of the functional domain (SEQ ID NO: 8) of natural type mouse epimorphin (NGNRTSVDLRIRRTQHSVLSRKFVDVMAEYNEAQILFRE; listed as Mus musculus) | cell adhesion comparable to that of the modified epimorphins | 1.4251 | – | –
3 | polypeptide A: 19 amino acids, 1st (N-terminal) to 19th of the functional domain (SEQ ID NO: 8) of natural type mouse epimorphin, chemically synthesized (NGNRTSVDLRIRRTQHSVL; listed as Mus musculus) | cell adhesion comparable to that of the modified epimorphins | 1.5237 | markedly inhibited | markedly inhibited
